US7132568B2, “Aspartyl protease inhibitors” (Sunesis Pharmaceuticals, Inc., priority 2002, dated 2006)

What was measured:
[1] = tested on: H4 neuroglioma cells stably transfected with APP (H4 β695wt); experiment: Cell-based Aβ secretion assay (sandwich ELISA) in H4 cells; settings: Homo sapiens
Description: This example describes an illustrative set of cell-based assays for testing the ability of the compounds of the present invention to inhibit the secretion of the Aβ peptide from cells expressing high levels of the human amyloid precursor protein (“APP”).
A representative set of such cells include A-204 rhabdomyosarcoma cells, human embryonic kidney 293 cells transiently transfected with APP, Chinese hamster ovary cells stably transfected with APP (CHO2B7), and H4 neuroglioma cells stably transfected with APP (H4 β695wt). The A-204 cells and HEK 293 cells were obtained from ATCC. For HEK 293 transient transfections, a pcDNA3 plasmid containing the human APP gene was obtained from Invitrogen, and cells were transfected with FuGENE 6 transfection reagent (Roche) following manufacturer's protocols. The CHO2B7 and H4 β695 wt lines were obtained from Mayo Clinic (J. Neuroscience Methods 108(2): 171–9 (2001)). […]
In the assay, cells were pre-treated with compounds for 1–2 hours to “wash out” any Aβ in the secretory pathway prior to incubation with compounds for the conditioning period required to generate detectable concentrations of Aβ. The production of secreted Aβ in cultured cells was monitored by sandwich ELISA, using the anti-Aβ monoclonal antibodies 6E10 and 4G8 (Signet Laboratories). […]

Cat D = Cat D (Homo sapiens, UniProt P07339); experiment: Cat D Ki determination (DABCYL/EDANS substrate); type: biochemical
Procedure: The Ki determination for Cat D was performed using the assay conditions derived from Haque et al., J. Med. Chem. 42: 1428–1440 (1999) and the following substrate: DABCYL-GLu-Arg-Nle-Phe-Leu-Ser-Phe-Pro-EDANS where Nle is norleucine and DABCYL and EDANS are as previously defined.

[2] = Metabolic stability in human liver microsomes; type: in vitro ADME; settings: pH 7.4
Procedure: Metabolic stability was determined by incubating the compounds with human liver microsomes (100 μg/ml) in 100 mM Tris buffer pH 7.4 for 5 minutes at 37° C. Metabolic reactions were started by addition of NADPH to give a final concentration of […]. Reactions were stopped after 30 and 60 minutes by addition of acetonitrile. Protein was precipitated by centrifugation (3000 rpm×10 min) then supernatants were analyzed for remaining parent compound by LC/MS/MS.

[3] = Plasma stability in human plasma; type: in vitro ADME; settings: 37° C.
Procedure: Plasma stability was determined by incubating the compounds in human plasma at a concentration of 1 μM at 37° C. for 0, 30 and 60 minutes. Reactions were stopped by addition of acetonitrile. Protein was precipitated by centrifugation (3000 rpm×10 min) then supernatants were analyzed for remaining parent compound by LC/MS/MS.

Cat D, sequence (P07339 65-412): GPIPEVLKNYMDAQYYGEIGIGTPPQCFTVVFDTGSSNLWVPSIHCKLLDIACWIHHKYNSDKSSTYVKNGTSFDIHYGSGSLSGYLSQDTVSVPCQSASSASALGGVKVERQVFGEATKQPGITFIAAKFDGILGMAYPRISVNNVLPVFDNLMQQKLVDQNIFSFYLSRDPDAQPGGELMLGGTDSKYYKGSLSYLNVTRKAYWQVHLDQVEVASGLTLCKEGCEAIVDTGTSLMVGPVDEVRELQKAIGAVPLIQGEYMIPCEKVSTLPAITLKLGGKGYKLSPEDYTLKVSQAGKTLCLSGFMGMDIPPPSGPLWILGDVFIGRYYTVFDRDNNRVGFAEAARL

Row | SMILES | IC50 [1] | Ki (Cat D) | preference for Cat D over BACE (Cat D; BACE Ki versus Cat D Ki) | recovery at 60 min [2] | recovery at 1 h, 1 μM [3] | preference for BACE over Cat D (Cat D; Cat D Ki versus BACE Ki)
1 | CCCN(CCC)C(=O)c1cccc(C(=O)N[C@@H](CC(C)C)[C@@H](O)C[C@@H](C)C(=O)N[C@H](C(=O)NCc2ccccc2)C(C)C)c1 [R = OH] | 2000 nM | 20 nM | 7.5 fold | 0% | 100% | –
2 | CCCN(CCC)C(=O)c1cccc(C(=O)N[C@@H](CC(C)C)[C@@H](N)C[C@@H](C)C(=O)N[C@H](C(=O)NCc2ccccc2)C(C)C)c1 [R = NH2] | 740 nM | 610 nM | – | 43% | 100% | over a three fold preference for BACE over Cat D
